Test results taken from patent US20260355165A1, “2,3,4,9-TETRAHYDRO-1H-PYRIDO[3,4-B]INDOLE DERIVATIVES AS ESTROGEN RECEPTOR MODULATORS FOR THE TREATMENT OF CANCER” (Olema Pharmaceuticals, Inc., priority 2022, published 2026).

These compounds were tested against T1, estrogen receptor (Homo sapiens, UniProt P03372) (assay: AP assay (alkaline phosphatase activity in ECC-1 cells), agonist mode (absence of E2) and antagonist mode (presence of 500 pM E2)). Conditions: 3 days, AP activity normalized to 500 pM E2 alone, agonist and antagonist mode combined.
T1 construct: endogenous in cells; host or cells: ECC-1 cells
T1 sequence (P03372 1-595): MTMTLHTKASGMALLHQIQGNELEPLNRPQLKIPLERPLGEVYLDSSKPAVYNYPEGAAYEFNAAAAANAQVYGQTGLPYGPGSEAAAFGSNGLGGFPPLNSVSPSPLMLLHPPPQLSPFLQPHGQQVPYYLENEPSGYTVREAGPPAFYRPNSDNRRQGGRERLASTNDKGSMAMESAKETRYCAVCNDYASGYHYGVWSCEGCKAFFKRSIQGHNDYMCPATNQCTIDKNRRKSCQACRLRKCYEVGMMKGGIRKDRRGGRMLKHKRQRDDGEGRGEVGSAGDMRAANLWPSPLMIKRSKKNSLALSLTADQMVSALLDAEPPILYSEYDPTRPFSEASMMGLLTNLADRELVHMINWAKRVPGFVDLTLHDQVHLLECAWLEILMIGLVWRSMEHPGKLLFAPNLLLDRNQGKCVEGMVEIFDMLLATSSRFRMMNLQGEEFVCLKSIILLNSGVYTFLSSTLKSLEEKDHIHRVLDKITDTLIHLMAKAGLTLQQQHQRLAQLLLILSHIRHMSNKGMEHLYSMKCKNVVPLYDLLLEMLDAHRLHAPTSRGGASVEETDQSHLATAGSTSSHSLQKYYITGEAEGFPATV
Format: cell-based
Procedure, shortened: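 Read-out is absorbance at 405 nm from p-nitrophenyl phosphate cleavage (40 min, 42 °C), expressed relative to 500 pM E2 alone. Compounds were applied to ECC-1 cells in hormone-depleted medium for 3 days, either alone (agonist) or alongside 500 pM E2 (antagonist).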

SMILES | Activity (estrogen receptor modulation, e.g., agonism and antagonism)
C[C@@H]1Cc2c([nH]c3ccccc23)[C@@H](c2c[nH]c3cc(C(=O)O)ccc23)N1CC(C)(C)F [Compound I-3, 3-[(1R,3R)-2-(2-fluoro-2-methyl-propyl)-3-methyl-1,3,4,9-tetrahydropyrido[3,4-b]indol-1-yl]-1H-indole-6-carboxylic acid] | + (estrogen receptor agonism having (i) at least 80% increase in the E2-normalized signal in the AP assay (agonist mode) and (ii) no more than 80% reduction in the E2-normalized signal in the AP assay (antagonist mode))
C[C@@H]1Cc2c([nH]c3ccccc23)[C@@H](c2n[nH]c3cc(CN4CC5(COC5)C4)ccc23)N1CC(F)F [Compound I-39, 6-((3-((1S,3R)-2-(2,2-difluoroethyl)-3-methyl-2,3,4,9-tetrahydro-1H-pyrido[3,4-b]indol-1-yl)-1H-indazol-6-yl)methyl)-2-oxa-6-azaspiro[3.3]heptane] | ++ (estrogen receptor antagonism having (i) between 10% and 80% increase in the E2-normalized signal in the AP assay (agonist mode) and (ii) between 10% and 80% reduction in the E2-normalized signal in the AP assay (antagonist mode))
C[C@@H]1Cc2c([nH]c3ccccc23)[C@@H](c2ccc3[nH]c(CN4CC5(CC(O)C5)C4)cc3c2)N1CC(C)(C)F [Compound I-53, 2-[[5-[(1R,3R)-2-(2-fluoro-2-methyl-propyl)-3-methyl-1,3,4,9-tetrahydropyrido[3,4-b]indol-1-yl]-1H-indol-2-yl]methyl]-2-azaspiro[3.3]heptan-6-ol] | + (estrogen receptor agonism having (i) at least 80% increase in the E2-normalized signal in the AP assay (agonist mode) and (ii) no more than 80% reduction in the E2-normalized signal in the AP assay (antagonist mode))
C[C@@H]1Cc2c([nH]c3ccccc23)[C@@H](c2cc3[nH]c(CN4CC(CF)C4)cc3s2)N1CC(C)(C)F [Compound I-64, 5-[[3-(fluoromethyl)azetidin-1-yl]methyl]-2-[(1S,3R)-2-(2-fluoro-2-methyl-propyl)-3-methyl-1,3,4,9-tetrahydropyrido[3,4-b]indol-1-yl]-4H-thieno[3,2-b]pyrrole] | ++ (estrogen receptor antagonism having (i) between 10% and 80% increase in the E2-normalized signal in the AP assay (agonist mode) and (ii) between 10% and 80% reduction in the E2-normalized signal in the AP assay (antagonist mode))
C[C@@H]1Cc2c([nH]c3ccccc23)[C@@H](c2ccc3[nH]c(CN4CC[C@H](F)C4)cc3c2)N1CC(C)(C)F [Compound I-47, (1R,3R)-2-(2-fluoro-2-methyl-propyl)-1-[2-[[(3S)-3-fluoropyrrolidin-1-yl]methyl]-1H-indol-5-yl]-3-methyl-1,3,4,9-tetrahydropyrido[3,4-b]indole] | + (estrogen receptor agonism having (i) at least 80% increase in the E2-normalized signal in the AP assay (agonist mode) and (ii) no more than 80% reduction in the E2-normalized signal in the AP assay (antagonist mode))
C[C@@H]1Cc2c([nH]c3ccccc23)[C@@H](c2ccc3oc(CN4CC(CF)C4)cc3c2)N1CC(C)(C)F [Compound I-57, (1R,3R)-1-[2-[[3-(fluoromethyl)azetidin-1-yl]methyl]benzofuran-5-yl]-2-(2-fluoro-2-methyl-propyl)-3-methyl-1,3,4,9-tetrahydropyrido[3,4-b]indole] | +++ (estrogen receptor antagonism (i) with pIC50 greater than 7.5 and at least a 10% reduction in the E2-normalized signal in the AP assay (antagonist mode); and (ii) no more than 10% increase in E2-normalized signal in the AP assay (agonist mode))
C[C@@H]1Cc2c([nH]c3ccccc23)[C@@H](c2ccc3oc(C4CN(CCCF)C4)nc3c2)N1CC(C)(C)F [Compound I-82, 5-[(1R,3R)-2-(2-fluoro-2-methyl-propyl)-3-methyl-1,3,4,9-tetrahydropyrido[3,4-b]indol-1-yl]-2-[1-(3-fluoropropyl)azetidin-3-yl]-1,3-benzoxazole] | + (estrogen receptor agonism having (i) at least 80% increase in the E2-normalized signal in the AP assay (agonist mode) and (ii) no more than 80% reduction in the E2-normalized signal in the AP assay (antagonist mode))
CC(C)C1CN(Cc2cc3cc([C@@H]4c5[nH]c6ccccc6c5C[C@@H](C)N4CC(C)(C)F)ccc3[nH]2)C1 [Compound I-95, (1R,3R)-2-(2-fluoro-2-methyl-propyl)-1-[2-[(3-isopropylazetidin-1-yl)methyl]-1H-indol-5-yl]-3-methyl-1,3,4,9-tetrahydropyrido[3,4-b]indole] | + (estrogen receptor agonism having (i) at least 80% increase in the E2-normalized signal in the AP assay (agonist mode) and (ii) no more than 80% reduction in the E2-normalized signal in the AP assay (antagonist mode))
C[C@@H]1Cc2c([nH]c3ccccc23)[C@@H](c2n[nH]c3cc(CNCCCF)ccc23)N1CC(C)(C)F [Compound I-14, 3-fluoro-N-[[3-[(1S,3R)-2-(2-fluoro-2-methyl-propyl)-3-methyl-1,3,4,9-tetrahydropyrido[3,4-b]indol-1-yl]-1H-indazol-6-yl]methyl]propan-1-amine] | + (estrogen receptor agonism having (i) at least 80% increase in the E2-normalized signal in the AP assay (agonist mode) and (ii) no more than 80% reduction in the E2-normalized signal in the AP assay (antagonist mode))
C[C@@H]1Cc2c([nH]c3ccccc23)[C@@H](c2ccc3oc(CN4CC5(CCC5)C4)nc3c2)N1CC(C)(C)F [Compound I-77, 2-(2-azaspiro[3.3]heptan-2-ylmethyl)-5-[(1R,3R)-2-(2-fluoro-2-methyl-propyl)-3-methyl-1,3,4,9-tetrahydropyrido[3,4-b]indol-1-yl]-1,3-benzoxazole] | +++ (estrogen receptor antagonism (i) with pIC50 greater than 7.5 and at least a 10% reduction in the E2-normalized signal in the AP assay (antagonist mode); and (ii) no more than 10% increase in E2-normalized signal in the AP assay (agonist mode))
C[C@@H]1Cc2c([nH]c3ccccc23)[C@@H](c2n[nH]c3cc(CN4CC[C@@H](CF)C4)ccc23)N1CC(C)(C)F [Compound I-24, (1S,3R)-2-(2-fluoro-2-methyl-propyl)-1-[6-[[(3R)-3-(fluoromethyl)pyrrolidin-1-yl]methyl]-1H-indazol-3-yl]-3-methyl-1,3,4,9-tetrahydropyrido[3,4-b]indole] | + (estrogen receptor agonism having (i) at least 80% increase in the E2-normalized signal in the AP assay (agonist mode) and (ii) no more than 80% reduction in the E2-normalized signal in the AP assay (antagonist mode))
CCC1CN(Cc2cc3cc([C@@H]4c5[nH]c6ccccc6c5C[C@@H](C)N4CC(C)(C)F)ccc3[nH]2)C1 [Compound I-91, (1R,3R)-1-[2-[(3-ethylazetidin-1-yl)methyl]-1H-indol-5-yl]-2-(2-fluoro-2-methyl-propyl)-3-methyl-1,3,4,9-tetrahydropyrido[3,4-b]indole] | + (estrogen receptor agonism having (i) at least 80% increase in the E2-normalized signal in the AP assay (agonist mode) and (ii) no more than 80% reduction in the E2-normalized signal in the AP assay (antagonist mode))
